Measurements taken from US6956034B2, “Oxazin(ethyl)one compounds used as fungicides” (BASF Aktiengesellschaft, priority 2001, dated 2005).

Tested on: mildew of cucumbers (Sphaerotheca fuliginea)
Experiment: Protective activity against mildew of cucumbers
Type: in vivo
Settings: 4 ppm; cucumber seedlings; untreated plants 90% infected
Method: The active compounds were used as aqueous preparations of active compounds which contained the active compound in a concentration of 250 ppm, 63 ppm, 16 ppm and 4 ppm, respectively. The aqueous preparation of active compound was prepared by diluting a stock solution of 10% by weight of active compound, 63% by weight of cyclohexanone and 27% by weight of emulsifier (20 parts by weight of Nekanil® LN (Lutensol® AP6, wetting agent having emulsifying and dispersing action based on ethoxylated alkylphenols) and 10 parts by weight of Wettol® EM (nonionic emulsifier based on ethoxylated castor oil)) with water in the amount required for the desired concentration.
Leaves of cucumber seedlings of the cultivar “Chinesische Schlange” which had been grown in pots were, at the cotyledon stage, sprayed to runoff point with an aqueous preparation of active compound. 20 hours after the spray coating had dried on, the plants were inoculated with an aqueous spore suspension of mildew of cucumbers (Sphaerotheca fuliginea). The plants were then cultivated in a greenhouse at 20-24° C. and 60-80% relative atmospheric humidity for 7 days. The extent of the mildew development was then determined visually in % infection of the cotyledon area.

SMILES	infection of the cotyledon area
CCCn1c(=NOC)oc2ccc(Cl)cc2c1=O [Compound I - A1.2, O-Methyl (6-chloro-3-propyl-4H-1,3-benz[e]oxazin-4(3H)-one)-2-oxime]	no infection

Same assay, conditions: 16 ppm; cucumber seedlings, sprayed 20 h before inoculation, 7 days; untreated 90

SMILES	percentage of infection of leaves at the prescribed concentration of active compound
CCCn1c(=NOC)oc2ccc(I)cc2c1=O [I - A1.4]	0%
CCCn1c(=NOC(C)C)oc2ccc(I)cc2c1=O [I - A1.139]	0%
CCCCn1c(=NOCC2CC2)oc2ccc(I)cc2c1=O [I - A1.136]	0%
CC(C)ON=c1oc2ccc(I)cc2c(=O)n1CC1CC1 [I - A1.134]	0%
CCCCn1c(=NOCC)oc2ccc(I)cc2c1=O [I - A1.24]	0%
CCCn1c(=NOC)oc2ccc(Cl)cc2c1=O [I - A1.2]	0%
CCON=c1oc2ccc(I)cc2c(=O)n1CC1CC1 [I - A1.72]	0%
O=c1c2cc(I)ccc2oc(=NOCC2CC2)n1CC1CC1 [I - A1.135]	3%
CCCON=c1oc2ccc(I)cc2c(=O)n1CCC [I - A1.12]	0%
CCCCn1c(=NOCCC)oc2ccc(I)cc2c1=O [I - A1.28]	0%
CON=c1oc2ccc(I)cc2c(=O)n1CC1CC1 [I - A1.68]	0%
CCCCn1c(=NOC)oc2ccc(I)cc2c1=O [I - A1.20]	0%
CCCn1c(=NOCC2CC2)oc2ccc(I)cc2c1=O [I - A1.137]	0%
CCCON=c1oc2ccc(I)cc2c(=O)n1CC1CC1 [I - A1.76]	0%
CCCn1c(=NOCC)oc2ccc(I)cc2c1=O [I - A1.8]	0%
CCCn1c(=NOC)oc2ccc(OC)cc2c1=O [I - A1.133]	10%
CCCCn1c(=NOC(C)C)oc2ccc(I)cc2c1=O [I - A1.138]	0%
CCCn1c(=NOC)oc2ccc(C)cc2c1=O [I - A1.132]	10%

Same assay, conditions: 63 ppm; cucumber seedlings, sprayed 20 h before inoculation, 7 days; untreated 90

SMILES	percentage of infection of leaves at the prescribed concentration of active compound
CCCn1c(=NOC)oc2ccc(I)cc2c1=O [I - A1.4]	0%
CCCn1c(=NOC(C)C)oc2ccc(I)cc2c1=O [I - A1.139]	0%
CCCCn1c(=NOCC2CC2)oc2ccc(I)cc2c1=O [I - A1.136]	0%
CC(C)ON=c1oc2ccc(I)cc2c(=O)n1CC1CC1 [I - A1.134]	0%
CCCCn1c(=NOCC)oc2ccc(I)cc2c1=O [I - A1.24]	0%
CCCn1c(=NOC)oc2ccc(Cl)cc2c1=O [I - A1.2]	0%
CCON=c1oc2ccc(I)cc2c(=O)n1CC1CC1 [I - A1.72]	0%
O=c1c2cc(I)ccc2oc(=NOCC2CC2)n1CC1CC1 [I - A1.135]	0%
CCCON=c1oc2ccc(I)cc2c(=O)n1CCC [I - A1.12]	0%
CCCCn1c(=NOCCC)oc2ccc(I)cc2c1=O [I - A1.28]	0%
CON=c1oc2ccc(I)cc2c(=O)n1CC1CC1 [I - A1.68]	0%
CCCCn1c(=NOC)oc2ccc(I)cc2c1=O [I - A1.20]	0%
CCCn1c(=NOCC2CC2)oc2ccc(I)cc2c1=O [I - A1.137]	0%
CCCON=c1oc2ccc(I)cc2c(=O)n1CC1CC1 [I - A1.76]	0%
CCCn1c(=NOCC)oc2ccc(I)cc2c1=O [I - A1.8]	0%
CCCn1c(=NOC)oc2ccc(OC)cc2c1=O [I - A1.133]	5%
CCCCn1c(=NOC(C)C)oc2ccc(I)cc2c1=O [I - A1.138]	0%
CCCn1c(=NOC)oc2ccc(C)cc2c1=O [I - A1.132]	10%

Same assay, conditions: 250 ppm; cucumber seedlings, sprayed 20 h before inoculation, 7 days; untreated 90

SMILES	percentage of infection of leaves at the prescribed concentration of active compound
CCCn1c(=NOC)oc2ccc(I)cc2c1=O [I - A1.4]	0%
CCCn1c(=NOC(C)C)oc2ccc(I)cc2c1=O [I - A1.139]	0%
CCCCn1c(=NOCC2CC2)oc2ccc(I)cc2c1=O [I - A1.136]	0%
CC(C)ON=c1oc2ccc(I)cc2c(=O)n1CC1CC1 [I - A1.134]	0%
CCCCn1c(=NOCC)oc2ccc(I)cc2c1=O [I - A1.24]	0%
CCCn1c(=NOC)oc2ccc(Cl)cc2c1=O [I - A1.2]	0%
CCON=c1oc2ccc(I)cc2c(=O)n1CC1CC1 [I - A1.72]	0%
O=c1c2cc(I)ccc2oc(=NOCC2CC2)n1CC1CC1 [I - A1.135]	0%
CCCON=c1oc2ccc(I)cc2c(=O)n1CCC [I - A1.12]	0%
CCCCn1c(=NOCCC)oc2ccc(I)cc2c1=O [I - A1.28]	0%
CON=c1oc2ccc(I)cc2c(=O)n1CC1CC1 [I - A1.68]	0%
CCCCn1c(=NOC)oc2ccc(I)cc2c1=O [I - A1.20]	0%
CCCn1c(=NOCC2CC2)oc2ccc(I)cc2c1=O [I - A1.137]	0%
CCCON=c1oc2ccc(I)cc2c(=O)n1CC1CC1 [I - A1.76]	0%
CCCn1c(=NOCC)oc2ccc(I)cc2c1=O [I - A1.8]	0%
CCCn1c(=NOC)oc2ccc(OC)cc2c1=O [I - A1.133]	0%
CCCCn1c(=NOC(C)C)oc2ccc(I)cc2c1=O [I - A1.138]	0%
CCCn1c(=NOC)oc2ccc(C)cc2c1=O [I - A1.132]	0%

Tested on: mildew of wheat (Erysiphe [syn. Blumeria] graminis forma specialis tritici)
Experiment: Protective activity against mildew of wheat
Type: in vivo
Settings: 16 ppm; wheat seedlings, sprayed 24 h before inoculation, 7 days; untreated 85
Method: The active compounds were used as aqueous preparations of active compounds which contained the active compound in a concentration of 250 ppm, 63 ppm, 16 ppm and 4 ppm, respectively. The aqueous preparation of active compound was prepared by diluting a stock solution of 10% by weight of active compound, 63% by weight of cyclohexanone and 27% by weight of emulsifier (20 parts by weight of Nekanil® LN (Lutensol® AP6, wetting agent having emulsifying and dispersing action based on ethoxylated alkylphenols) and 10 parts by weight of Wettol® EM (nonionic emulsifier based on ethoxylated castor oil)) with water in the amount required for the desired concentration. The first fully developed leaves of the wheat seedlings of the variety “Kanzler” which had been grown in pots were sprayed to runoff point with an aqueous preparation of active compound prepared from a stock solution containing 10% of active compound, […]. 24 hours after the spray coating had dried on, the plants were inoculated with an aqueous spore suspension of mildew of wheat (Erysiphe [syn. Blumeria] graminis forma specialis. tritici). The plants were then cultivated in a greenhouse at 20-24° C. and 60-90% relative atmospheric humidity. After 7 days the extent of the mildew development was determined visually in % infection of the leaves.

SMILES	percentage of infection of leaves at the prescribed concentration of active compound
CCCn1c(=NOC)oc2ccc(I)cc2c1=O [I - A1.4]	0%
CCCn1c(=NOC(C)C)oc2ccc(I)cc2c1=O [I - A1.139]	0%
CCCCn1c(=NOCC2CC2)oc2ccc(I)cc2c1=O [I - A1.136]	0%
CC(C)ON=c1oc2ccc(I)cc2c(=O)n1CC1CC1 [I - A1.134]	0%
CCCCn1c(=NOCC)oc2ccc(I)cc2c1=O [I - A1.24]	0%
CCCn1c(=NOC)oc2ccc(Cl)cc2c1=O [I - A1.2]	0%
CCON=c1oc2ccc(I)cc2c(=O)n1CC1CC1 [I - A1.72]	0%
O=c1c2cc(I)ccc2oc(=NOCC2CC2)n1CC1CC1 [I - A1.135]	5%
CCCON=c1oc2ccc(I)cc2c(=O)n1CCC [I - A1.12]	0%
CCCCn1c(=NOCCC)oc2ccc(I)cc2c1=O [I - A1.28]	0%
CON=c1oc2ccc(I)cc2c(=O)n1CC1CC1 [I - A1.68]	0%
CCCCn1c(=NOC)oc2ccc(I)cc2c1=O [I - A1.20]	0%
CCCn1c(=NOCC2CC2)oc2ccc(I)cc2c1=O [I - A1.137]	0%
CCCON=c1oc2ccc(I)cc2c(=O)n1CC1CC1 [I - A1.76]	0%
CCCn1c(=NOCC)oc2ccc(I)cc2c1=O [I - A1.8]	0%
CCCn1c(=NOC)oc2ccc(OC)cc2c1=O [I - A1.133]	20%
CCCCn1c(=NOC(C)C)oc2ccc(I)cc2c1=O [I - A1.138]	0%

Same assay, conditions: 63 ppm; wheat seedlings, sprayed 24 h before inoculation, 7 days; untreated 85

SMILES	percentage of infection of leaves at the prescribed concentration of active compound
CCCn1c(=NOC)oc2ccc(I)cc2c1=O [I - A1.4]	0%
CCCn1c(=NOC(C)C)oc2ccc(I)cc2c1=O [I - A1.139]	0%
CCCCn1c(=NOCC2CC2)oc2ccc(I)cc2c1=O [I - A1.136]	0%
CC(C)ON=c1oc2ccc(I)cc2c(=O)n1CC1CC1 [I - A1.134]	0%
CCCCn1c(=NOCC)oc2ccc(I)cc2c1=O [I - A1.24]	0%
CCCn1c(=NOC)oc2ccc(Cl)cc2c1=O [I - A1.2]	0%
CCON=c1oc2ccc(I)cc2c(=O)n1CC1CC1 [I - A1.72]	0%
O=c1c2cc(I)ccc2oc(=NOCC2CC2)n1CC1CC1 [I - A1.135]	0%
CCCON=c1oc2ccc(I)cc2c(=O)n1CCC [I - A1.12]	0%
CCCCn1c(=NOCCC)oc2ccc(I)cc2c1=O [I - A1.28]	0%
CON=c1oc2ccc(I)cc2c(=O)n1CC1CC1 [I - A1.68]	0%
CCCCn1c(=NOC)oc2ccc(I)cc2c1=O [I - A1.20]	0%
CCCn1c(=NOCC2CC2)oc2ccc(I)cc2c1=O [I - A1.137]	0%
CCCON=c1oc2ccc(I)cc2c(=O)n1CC1CC1 [I - A1.76]	0%
CCCn1c(=NOCC)oc2ccc(I)cc2c1=O [I - A1.8]	0%
CCCn1c(=NOC)oc2ccc(OC)cc2c1=O [I - A1.133]	0%
CCCCn1c(=NOC(C)C)oc2ccc(I)cc2c1=O [I - A1.138]	0%

Same assay, conditions: 250 ppm; wheat seedlings, sprayed 24 h before inoculation, 7 days; untreated 85

SMILES	percentage of infection of leaves at the prescribed concentration of active compound
CCCn1c(=NOC)oc2ccc(I)cc2c1=O [I - A1.4]	0%
CCCn1c(=NOC(C)C)oc2ccc(I)cc2c1=O [I - A1.139]	0%
CCCCn1c(=NOCC2CC2)oc2ccc(I)cc2c1=O [I - A1.136]	0%
CC(C)ON=c1oc2ccc(I)cc2c(=O)n1CC1CC1 [I - A1.134]	0%
CCCCn1c(=NOCC)oc2ccc(I)cc2c1=O [I - A1.24]	0%
CCCn1c(=NOC)oc2ccc(Cl)cc2c1=O [I - A1.2]	0%
CCON=c1oc2ccc(I)cc2c(=O)n1CC1CC1 [I - A1.72]	0%
O=c1c2cc(I)ccc2oc(=NOCC2CC2)n1CC1CC1 [I - A1.135]	0%
CCCON=c1oc2ccc(I)cc2c(=O)n1CCC [I - A1.12]	0%
CCCCn1c(=NOCCC)oc2ccc(I)cc2c1=O [I - A1.28]	0%
CON=c1oc2ccc(I)cc2c(=O)n1CC1CC1 [I - A1.68]	0%
CCCCn1c(=NOC)oc2ccc(I)cc2c1=O [I - A1.20]	0%
CCCn1c(=NOCC2CC2)oc2ccc(I)cc2c1=O [I - A1.137]	0%
CCCON=c1oc2ccc(I)cc2c(=O)n1CC1CC1 [I - A1.76]	0%
CCCn1c(=NOCC)oc2ccc(I)cc2c1=O [I - A1.8]	0%
CCCn1c(=NOC)oc2ccc(OC)cc2c1=O [I - A1.133]	0%
CCCCn1c(=NOC(C)C)oc2ccc(I)cc2c1=O [I - A1.138]	0%
